Measured values reported in US12139520B2 (priority 2020, dated 2024).
pEC50: −log10 of the molar value. Bridge positions count the residues as written; N and C are the ends. Square brackets hold non-standard residues; d marks the D form. Peptide text beside a SMILES is read from it. Hyp = O=C(O)[C@@H]1C[C@@H](O)CN1

Key:
[1] = Physical stability of peptide analogues (Thioflavin T fibrillation); assay type: physicochemical; details: maximum ThT signal normalized between hAMY maximum and buffer background; 40° C., shaking, four days; pH 7 per table title
Method in brief: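 Samples are stressed at 40 °C for four days, being shaken at 700 rpm before each 10-min fluorescence reading of 4 μM Thioflavin T. Buffers were pH 4 acetate or pH 7 phosphate. Reported values are smoothed maximum ThT signals as a percentage of the hAMY-to-background range.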

hAMY3 receptor = biological target: T1, hAMY3 receptor (Homo sapiens, UniProt O60896+P30988); assay: cAMP assay for in vitro receptor activation, hAMY3-R; assay type: cell-based; details: cAMP assay, hAMY3 receptor; read-out: hAMY3R EC50
T1 sequence (P30988 25-474): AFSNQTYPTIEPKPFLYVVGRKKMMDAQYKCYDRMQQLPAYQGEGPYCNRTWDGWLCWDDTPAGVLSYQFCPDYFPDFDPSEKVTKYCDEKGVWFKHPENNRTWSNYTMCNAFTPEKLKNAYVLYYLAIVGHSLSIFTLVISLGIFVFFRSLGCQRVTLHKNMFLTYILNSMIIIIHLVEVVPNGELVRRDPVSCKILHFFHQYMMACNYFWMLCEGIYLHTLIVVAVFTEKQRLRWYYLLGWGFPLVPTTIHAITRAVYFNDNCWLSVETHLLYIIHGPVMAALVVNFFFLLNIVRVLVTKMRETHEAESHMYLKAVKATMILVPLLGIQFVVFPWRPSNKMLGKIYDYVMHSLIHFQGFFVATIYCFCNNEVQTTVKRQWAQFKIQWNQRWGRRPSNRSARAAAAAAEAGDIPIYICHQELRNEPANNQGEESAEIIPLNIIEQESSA
T1 sequence (O60896 24-148 partner): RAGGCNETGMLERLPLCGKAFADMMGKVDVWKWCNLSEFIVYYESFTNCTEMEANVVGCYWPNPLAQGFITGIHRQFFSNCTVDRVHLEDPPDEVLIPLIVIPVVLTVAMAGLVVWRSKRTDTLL
Method in brief: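 Graded compound concentrations were applied for 30 min at room temperature to stably hAMY3-expressing cells in DPBS, 0.05% casein, 0.5 mM IBMX; cAMP detected by TR-FRET.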

Row | SMILES | Max ThT signal (%) [1] | pEC50 (hAMY3 receptor)
1 | CC[C@H](C)[C@H](NC(=O)[C@H](CCC(N)=O)NC(=O)[C@H](Cc1c[nH]cn1)NC(=O)[C@H](C)NC(=O)[C@H](CC(C)C)NC(=O)[C@H](CCCNC(=N)N)NC(=O)[C@H](CCC(N)=O)NC(=O)[C@@H](NC(=O)[C@@H](NC(=O)[C@@H]1CSSC[C@H](NC(=O)CN)C(=O)N[C@@H](CCCNC(=N)N)C(=O)N[C@@H](Cc2ccccc2)C(=O)NCC(=O)N[C@@H]([C@@H](C)O)C(=O)N1)[C@@H](C)O)C(C)C)C(=O)N[C@@H](Cc1ccc(O)cc1)C(=O)N[C@@H](CCC(N)=O)C(=O)N[C@@H](Cc1ccccc1)C(=O)N[C@H](C(=O)N[C@@H](CC(=O)O)C(=O)N[C@@H](CCCCN)C(=O)N[C@@H](CC(=O)O)C(=O)N[C@@H](CCCCN)C(=O)N[C@@H](CC(=O)O)C(=O)N[C@@H](CC(N)=O)C(=O)N[C@H](C(=O)N[C@@H](C)C(=O)N1CCC[C@H]1C(=O)N[C@@H](CCCNC(=N)N)C(=O)N[C@H](C(=O)N[C@@H](CCCCN)C(=O)N[C@H](C(=O)N[C@@H](CO)C(=O)N1CCC[C@H]1C(=O)N[C@@H](CCC(N)=O)C(=O)NCC(=O)N1C[C@H](O)C[C@H]1C(N)=O)[C@@H](C)CC)[C@@H](C)O)C(C)C)[C@@H](C)O [compound 146] (H-GCRFGTCTVQRLAHQIYQFTDKDKDNVAPRTKISPQG[Hyp]-NH2; disulfide 2-7; N-terminus assumed) | 3.600% | 10.40
2 | CC[C@H](C)[C@H](NC(=O)[C@H](CCC(N)=O)NC(=O)[C@H](Cc1c[nH]cn1)NC(=O)[C@H](C)NC(=O)[C@H](CC(C)C)NC(=O)[C@H](CCCNC(=N)N)NC(=O)[C@H](CCC(N)=O)NC(=O)[C@@H](NC(=O)[C@@H](NC(=O)[C@@H]1CSSC[C@H](NC(=O)CN)C(=O)N[C@@H](CCCNC(=N)N)C(=O)N[C@@H](Cc2ccccc2)C(=O)NCC(=O)N[C@@H]([C@@H](C)O)C(=O)N1)[C@@H](C)O)C(C)C)C(=O)N[C@@H](Cc1ccc(O)cc1)C(=O)N[C@@H](CCC(N)=O)C(=O)N[C@@H](Cc1ccccc1)C(=O)N[C@H](C(=O)N[C@@H](CC(=O)O)C(=O)N[C@@H](CCCCN)C(=O)N[C@@H](CC(=O)O)C(=O)N[C@@H](CCCCN)C(=O)N[C@@H](CC(=O)O)C(=O)N[C@@H](CC(N)=O)C(=O)N[C@H](C(=O)N[C@@H](C)C(=O)N1CCC[C@H]1C(=O)N[C@@H](CCCNC(=N)N)C(=O)N[C@@H](CO)C(=O)N[C@@H](CC(N)=O)C(=O)N[C@H](C(=O)N[C@@H](CO)C(=O)N1CCC[C@H]1C(=O)N[C@@H](CCC(N)=O)C(=O)NCC(=O)N1C[C@H](O)C[C@H]1C(N)=O)[C@@H](C)CC)C(C)C)[C@@H](C)O [compound 158] (H-GCRFGTCTVQRLAHQIYQFTDKDKDNVAPRSNISPQG[Hyp]-NH2; disulfide 2-7; N-terminus assumed) | 6.300% | 10.32

Now those with a higher pEC50 (hAMY3 receptor), led by results:

Row | Max ThT signal (%) [1] | pEC50 (hAMY3 receptor) | SMILES
3 | 8.800% | 10.44 | CC[C@H](C)[C@H](NC(=O)[C@H](CCC(N)=O)NC(=O)[C@H](Cc1c[nH]cn1)NC(=O)[C@H](C)NC(=O)[C@H](CC(C)C)NC(=O)[C@H](CCCNC(=N)N)NC(=O)[C@H](CCC(N)=O)NC(=O)[C@@H](NC(=O)[C@@H](NC(=O)[C@@H]1CSSC[C@H](NC(=O)CN)C(=O)N[C@@H](CCCNC(=N)N)C(=O)N[C@@H](Cc2ccccc2)C(=O)NCC(=O)N[C@@H]([C@@H](C)O)C(=O)N1)[C@@H](C)O)C(C)C)C(=O)N[C@@H](Cc1ccc(O)cc1)C(=O)N[C@@H](CCC(N)=O)C(=O)N[C@@H](Cc1ccccc1)C(=O)N[C@H](C(=O)N[C@@H](CC(=O)O)C(=O)N[C@@H](CCCCN)C(=O)N[C@@H](CC(=O)O)C(=O)N[C@@H](CCCCN)C(=O)N[C@@H](CC(=O)O)C(=O)N[C@@H](CC(N)=O)C(=O)N[C@H](C(=O)N[C@@H](C)C(=O)N1CCC[C@H]1C(=O)N[C@@H](CCCNC(=N)N)C(=O)N[C@H](C(=O)N[C@@H](CCCCN)C(=O)N[C@H](C(=O)N[C@@H](CO)C(=O)N1CCC[C@H]1C(=O)N[C@@H](CC(N)=O)C(=O)NCC(=O)N[C@@H](Cc1ccc(O)cc1)C(N)=O)C(C)C)[C@@H](C)O)C(C)C)[C@@H](C)O [compound 385] (H-GCRFGTCTVQRLAHQIYQFTDKDKDNVAPRTKVSPNGY-NH2; disulfide 2-7; N-terminus assumed)
4 | 6.800% | 10.51 | CC[C@H](C)[C@H](NC(=O)[C@H](CCC(N)=O)NC(=O)[C@H](Cc1c[nH]cn1)NC(=O)[C@H](C)NC(=O)[C@H](CC(C)C)NC(=O)[C@H](CCCNC(=N)N)NC(=O)[C@H](CCC(N)=O)NC(=O)[C@@H](NC(=O)[C@@H](NC(=O)[C@@H]1CSSC[C@H](NC(=O)CN)C(=O)N[C@@H](CCCNC(=N)N)C(=O)N[C@@H](Cc2ccccc2)C(=O)NCC(=O)N[C@@H]([C@@H](C)O)C(=O)N1)[C@@H](C)O)C(C)C)C(=O)N[C@@H](Cc1ccc(O)cc1)C(=O)N[C@@H](CCC(N)=O)C(=O)N[C@@H](Cc1ccccc1)C(=O)N[C@H](C(=O)N[C@@H](CC(=O)O)C(=O)N[C@@H](CCCCN)C(=O)N[C@@H](CC(=O)O)C(=O)N[C@@H](CCCCN)C(=O)N[C@@H](CC(=O)O)C(=O)N[C@@H](CC(N)=O)C(=O)N[C@H](C(=O)N[C@@H](C)C(=O)N1CCC[C@H]1C(=O)N[C@@H](CCCNC(=N)N)C(=O)N[C@@H](CO)C(=O)N[C@@H](CC(N)=O)C(=O)N[C@H](C(=O)N[C@@H](CO)C(=O)N1CCC[C@H]1C(=O)N[C@@H](CCC(N)=O)C(=O)NCC(=O)N[C@@H](Cc1ccc(O)cc1)C(N)=O)C(C)C)C(C)C)[C@@H](C)O [compound 131] (H-GCRFGTCTVQRLAHQIYQFTDKDKDNVAPRSNVSPQGY-NH2; disulfide 2-7)
5 | 30.300% | 10.57 | CC[C@H](C)[C@H](NC(=O)[C@H](CCC(N)=O)NC(=O)[C@H](Cc1c[nH]cn1)NC(=O)[C@H](C)NC(=O)[C@H](CC(C)C)NC(=O)[C@H](Cc1c[nH]c2ccccc12)NC(=O)[C@H](CCC(N)=O)NC(=O)[C@@H](NC(=O)[C@@H](NC(=O)[C@@H]1CSSC[C@H](NC(=O)CN)C(=O)N[C@@H](CCCNC(=N)N)C(=O)N[C@@H](Cc2ccccc2)C(=O)NCC(=O)N[C@@H]([C@@H](C)O)C(=O)N1)[C@@H](C)O)C(C)C)C(=O)N[C@@H](Cc1ccc(O)cc1)C(=O)N[C@@H](CCC(N)=O)C(=O)N[C@@H](Cc1ccccc1)C(=O)N[C@H](C(=O)N[C@@H](CC(=O)O)C(=O)N[C@@H](CCCCN)C(=O)N[C@@H](CC(=O)O)C(=O)N[C@@H](CCCCN)C(=O)N[C@@H](CC(=O)O)C(=O)N[C@@H](CC(N)=O)C(=O)N[C@H](C(=O)N[C@@H](C)C(=O)N1CCC[C@H]1C(=O)N[C@@H](CCCNC(=N)N)C(=O)N[C@@H](CO)C(=O)N[C@@H](CCCCN)C(=O)N[C@H](C(=O)NCC(=O)N1CCC[C@H]1C(=O)N[C@@H](CCC(N)=O)C(=O)NCC(=O)N1C[C@H](O)C[C@H]1C(N)=O)C(C)C)C(C)C)[C@@H](C)O [compound 353] (H-GCRFGTCTVQWLAHQIYQFTDKDKDNVAPRSKVGPQG[Hyp]-NH2; disulfide 2-7; N-terminus assumed)
6 | 18.000% | 10.70 | CC[C@H](C)[C@H](NC(=O)[C@H](CCC(N)=O)NC(=O)[C@H](Cc1c[nH]cn1)NC(=O)[C@H](C)NC(=O)[C@H](CC(C)C)NC(=O)[C@H](CCCNC(=N)N)NC(=O)[C@H](CCC(N)=O)NC(=O)[C@@H](NC(=O)[C@@H](NC(=O)[C@@H]1CSSC[C@H](NC(=O)CN)C(=O)N[C@@H](CCCNC(=N)N)C(=O)N[C@@H](Cc2ccccc2)C(=O)NCC(=O)N[C@@H]([C@@H](C)O)C(=O)N1)[C@@H](C)O)C(C)C)C(=O)N[C@@H](Cc1ccc(O)cc1)C(=O)N[C@@H](CCC(N)=O)C(=O)N[C@@H](Cc1ccccc1)C(=O)N[C@H](C(=O)N[C@@H](CC(=O)O)C(=O)N[C@@H](CCCCN)C(=O)N[C@@H](CC(=O)O)C(=O)N[C@@H](CCCCN)C(=O)N[C@@H](CC(=O)O)C(=O)N[C@@H](CC(N)=O)C(=O)N[C@H](C(=O)N[C@@H](C)C(=O)N1CCC[C@H]1C(=O)N[C@@H](CCCNC(=N)N)C(=O)N[C@@H](CO)C(=O)N[C@@H](CC(N)=O)C(=O)N[C@H](C(=O)NCC(=O)N1CCC[C@H]1C(=O)N[C@@H](CC(N)=O)C(=O)NCC(=O)N[C@@H](Cc1ccc(O)cc1)C(N)=O)C(C)C)C(C)C)[C@@H](C)O [compound 373] (H-GCRFGTCTVQRLAHQIYQFTDKDKDNVAPRSNVGPNGY-NH2; disulfide 2-7; N-terminus assumed)
